The text below walks through data of US11058702B2 (EMEK, Inc., priority 2014, dated 2021).

Molecules are shown by their SMILES. Read-outs that look alike come from different tables or passages of the source.

The conditions of data set [1]: IV IUdR.
The next data set in a line: in vivo. As to the method: No further dose escalations were used because of the increased risk of pulmonary aspiration with larger drug volumes (≥2000 mg/kg/d).
For data set [2], the system named is human bladder and cervical cancer cells. The conditions noted are these: cited from earlier work.
The test system of data set [3] is human bladder cancer cell line. The conditions noted are these: IUdR for 48 hours prior to one-hour exposure to cisplatin; cited from earlier work.
The test system of data set [4] is high-grade primary brain tumors. The conditions noted are these: cited from earlier work; for Median survival (Months): RT + IUdR.
For data set [5] the following is noted: IV or IA IUdR; cited from earlier work.
A further data set relates to high-grade sarcomas. The conditions noted are these: cited from earlier work.
Data set [6] deals with cellular DNA of tumor and normal tissues. The conditions noted are these: cited from earlier work.
Data set [7] has the same test system. Description: Clinical Phase I/II trials of ci IUdR + RT: % IUdR-DNA cellular incorporation, plasma level, toxicity. The class given is in vivo, human. The protocol:
In the prior clinical Phase I and II trials of continuous intravenous infusions of IUdR+RT for high-grade gliomas (Table 1), high-grade sarcomas (Table 2), in patients with liver metastases for colorectal cancer, and in patients with head and neck cancers, the % IUdR-DNA cellular incorporation was measured in tumor tissue as well as normal tissues, including normal liver and in circulating blood cells (granulocytes).

The subject of data set [8] is cellular DNA of tumor and normal rectal mucosa. The conditions noted are these: cited from earlier work.
For data set [9] the test system is unchanged. Put plainly: Clinical trial of ci BUdR in locally advanced cervical cancer: DNA incorporation. Type of data set: in vivo, human.

As for `O=c1[nH]c(=O)n([C@H]2C[C@H](O)[C@@H](CO)O2)cc1I` [IUdR, 5-iodo-2′-deoxyuridine], in data set [1], the LD50 entry was “never reached”. Moreover, the weight loss in the data set “in vivo” (ci IUdR 100 mg/kg/d, by day 6) is at least 20%. Moreover, the “GI toxicity, body weight loss” value in “in vivo” (ci IUdR×6-14 days, xenograft studies) is above 20%. Besides, the MTD at 4 days in the data set “in vivo” (mouse, in vivo, po, 250 mg/kg/d) was 250 mg/kg/day. Besides, in [2] (IUdR (2 μM) + hydroxyurea), the radiation sensitizer enhancement result is on record as “approximately 1.75”. In data set [2] (IUdR (2 μM) + non-cytotoxic doses of hydroxyurea), the “increase in IdUTP pools and IUdR-DNA incorporation” value is on record as 2 fold. Further, the “dose-modifying factors at 10% survival” value in data set [3] is recorded as “up to 3.5”. For the same molecule, the “Median survival (Months)” value in [4] (Anaplastic astrocytomas (Grade 3 of 4), RT alone 24) is on record as 39 Months. In addition, the “Median survival (Months)” value in data set [4] (Glioblastoma Multiforme (Grade 4 of 4), RT alone 9) was 15 Months. Moreover, the “prolongation of survival compared to RT alone” value in [4] (ci IUdR+RT) was “greater than 50%”. For the same molecule, the plasma half-life in [5] was below 5 min. The “Local Control at 2 years” value in the data set on high-grade sarcomas (High grade sarcomas (resectable), RT + IUdR + Surgery, RT + Surgery 25%) is listed as 45%. Besides, the “Local Control at 2 years” value in the data set on high-grade sarcomas (High grade sarcomas (un-resectable), RT + IUdR, RT alone <10%) was 60%. Besides, the “% IUdR-DNA levels” value in data set [6] (5-7 day ci IUdR infusion, locally advanced head & neck cancers) is above 5%. Moreover, the “IUdR-DNA tumor cell levels (plateau)” value in data set [6] (ci IUdR 1000 mg/M^2, within 5 days, H&N SCC) is listed as 7.5-8%. Besides, the “steady state plasma concentration” value in data set [6] (ci IUdR exposure that produced clinical responses) was 1 µM. Moreover, the local control result in data set [6] (ci IUdR+RT, locally advanced head & neck cancers) is recorded as “high local control rate”. In [6] (ci IUdR), the “% IUdR-DNA levels in peripheral granulocytes that predicted systemic bone marrow toxicity” value is 6% and the “plasma level of IUdR to achieve >3% IUdR-DNA cellular incorporation” value is above 1000 nM. Moreover, in data set [6] (human, in vivo), the “threshold of % IUdR-DNA tumor cell incorporation associated with in vivo radiosensitization” value is recorded as at least 3%; the “toxicities of prolonged ci of IUdR” value is “myelosuppression and acute GI toxicities”. Also, the “% IUdR-DNA cellular incorporation in tumors” value in [6] (patients with head and neck cancers or liver metastases from colorectal cancer) is on record as 5-8%. Further, the “% IUdR-DNA cellular incorporation in adjacent normal liver tissue” value in [6] (patients with liver metastases) is listed as “less than 1%”. In addition, the DNA-replacement/day in data set [7] (ci IUdR 1000 mg/M^2, H&N SCC) came to 1.3%. The “TI of ci IUdR in the clinical studies” value in [7] (from % IUdR-DNA incorporation at grade 3 or 4 toxicities) is around 1.

With `O=c1[nH]c(=O)n([C@H]2C[C@H](O)[C@@H](CO)O2)cc1Br` [BUdR, bromodeoxyuridine], the “tumor cell IUdR-DNA incorporation” value in data set [8] (ci BUdR 1000 mg/M^2/day×4 days, Day 5) is reported as 5-8%. Also, in [8] (ci BUdR), the “IUdR-DNA incorporation in adjacent normal rectal mucosa cells” value was 3-4%. Besides, the “ratio of tumor to rectum” value in data set [9] is recorded as 1.5-1.8 fold.
